These results are taken from ChEMBL document CHEMBL1201862, “PubChem BioAssay data set” (2004).

Type in all cases: functional
The target of assay [1] is Tyrosine-protein kinase JAK2 (Homo sapiens, UniProt O60674).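 Note: JAK2 tested as one member of a kinase panel.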
The target of assay [2] is Cyclin-dependent kinase 2 (Homo sapiens, UniProt P24941).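 Note: CDK2 measured as one member of a broad kinome profiling panel.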
The target of assay [3] is MAP kinase-activated protein kinase 2 (Homo sapiens, UniProt P49137).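 Note: measured as one member of a kinome-wide kinase panel.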
The target in assay [4] is Casein kinase II subunit alpha (Homo sapiens, UniProt P68400).
The target of assay [5] is T1, Tyrosine-protein kinase JAK3 (Homo sapiens, UniProt P52333).
T1 sequence (P52333 whole entry): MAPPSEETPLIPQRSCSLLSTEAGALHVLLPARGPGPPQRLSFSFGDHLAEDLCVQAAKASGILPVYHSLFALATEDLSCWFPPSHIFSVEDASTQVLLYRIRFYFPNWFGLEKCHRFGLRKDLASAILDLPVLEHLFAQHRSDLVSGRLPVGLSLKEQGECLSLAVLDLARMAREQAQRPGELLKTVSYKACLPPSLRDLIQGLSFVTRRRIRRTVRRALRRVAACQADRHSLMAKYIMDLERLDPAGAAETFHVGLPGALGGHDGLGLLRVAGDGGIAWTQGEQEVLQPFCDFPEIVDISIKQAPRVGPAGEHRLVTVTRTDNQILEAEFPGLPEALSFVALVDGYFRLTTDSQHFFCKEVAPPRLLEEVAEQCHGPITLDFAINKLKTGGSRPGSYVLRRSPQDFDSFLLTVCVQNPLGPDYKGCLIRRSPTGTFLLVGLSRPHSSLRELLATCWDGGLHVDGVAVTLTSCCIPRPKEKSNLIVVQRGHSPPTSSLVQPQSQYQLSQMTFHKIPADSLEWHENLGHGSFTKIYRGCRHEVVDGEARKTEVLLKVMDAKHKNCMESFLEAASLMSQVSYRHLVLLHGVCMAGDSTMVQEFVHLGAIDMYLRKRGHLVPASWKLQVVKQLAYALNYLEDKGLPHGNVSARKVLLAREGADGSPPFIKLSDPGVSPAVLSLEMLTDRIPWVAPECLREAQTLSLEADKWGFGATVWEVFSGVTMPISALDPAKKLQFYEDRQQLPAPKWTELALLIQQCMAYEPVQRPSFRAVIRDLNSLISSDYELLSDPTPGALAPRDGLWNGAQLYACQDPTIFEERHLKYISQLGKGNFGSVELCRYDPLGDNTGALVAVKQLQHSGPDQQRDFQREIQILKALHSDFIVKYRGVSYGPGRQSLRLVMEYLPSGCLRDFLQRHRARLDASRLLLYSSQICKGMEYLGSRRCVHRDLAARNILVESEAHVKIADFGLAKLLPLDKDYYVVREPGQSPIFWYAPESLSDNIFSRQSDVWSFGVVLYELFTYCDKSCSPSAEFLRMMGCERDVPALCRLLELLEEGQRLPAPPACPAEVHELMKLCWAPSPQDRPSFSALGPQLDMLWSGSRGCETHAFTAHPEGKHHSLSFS

The target in assay [6] is Tyrosine-protein kinase Lyn (Homo sapiens, UniProt P07948).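 Note: lyn as one member of a kinase panel.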
Assay [7] deals with Mitogen-activated protein kinase 9 (Homo sapiens, UniProt P45984).
Assay [8] has as its target Hepatocyte growth factor receptor (Homo sapiens, UniProt P08581).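 Note: kinase panel profiling across the kinome, with MET as the panel member.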
Assay [9] concerns the target Receptor tyrosine-protein kinase erbB-2 (Homo sapiens, UniProt P04626). The assay is described as follows: Navigating the Kinome. Panel member name: ERBB2.
The target of assay [10] is Serine/threonine-protein kinase Chk1 (Homo sapiens, UniProt O14757).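 Note: measured as one member of a kinome-wide kinase profiling panel.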
Assay [11] addresses Casein kinase I isoform delta (Homo sapiens, UniProt P48730).
For assay [12], the target named is Tyrosine-protein kinase ABL1 (Homo sapiens, UniProt P00519).
The target in assay [13] is Cyclin-dependent kinase 5 (Homo sapiens, UniProt Q00535).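 Note: CDK5 measured as one member of a kinase profiling panel.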
Another assay addresses Ephrin type-A receptor 2 (Homo sapiens, UniProt P29317).
The target of assay [14] is Insulin-like growth factor 1 receptor (Homo sapiens, UniProt P08069). Nature of the assay: Navigating the Kinome. Panel member name: IGF1R.
For assay [15], the target named is T2, Interleukin-1 receptor-associated kinase 4 (Homo sapiens, UniProt Q9NWZ3).
T2 sequence (Q9NWZ3 whole entry): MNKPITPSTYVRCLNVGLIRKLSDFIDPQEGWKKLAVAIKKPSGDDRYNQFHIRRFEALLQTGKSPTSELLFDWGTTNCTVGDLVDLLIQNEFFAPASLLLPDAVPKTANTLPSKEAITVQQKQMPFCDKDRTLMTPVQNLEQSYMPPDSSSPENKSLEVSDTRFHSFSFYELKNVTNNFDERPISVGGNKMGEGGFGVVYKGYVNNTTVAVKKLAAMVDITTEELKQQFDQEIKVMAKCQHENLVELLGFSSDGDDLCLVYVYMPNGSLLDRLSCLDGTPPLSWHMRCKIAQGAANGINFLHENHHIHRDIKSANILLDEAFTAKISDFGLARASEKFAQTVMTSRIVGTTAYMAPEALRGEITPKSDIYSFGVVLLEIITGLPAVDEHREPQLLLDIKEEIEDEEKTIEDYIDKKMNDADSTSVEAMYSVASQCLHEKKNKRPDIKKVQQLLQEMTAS

Assay [16] concerns the target Vascular endothelial growth factor receptor 3 (Homo sapiens, UniProt P35916).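 Note: value from a kinome-wide profiling panel, with FLT4 as the panel member.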
In assay [17] the target is Serine/threonine-protein kinase Nek2 (Homo sapiens, UniProt P51955).
Assay [18] addresses Fibroblast growth factor receptor 3 (Homo sapiens, UniProt P22607).
For assay [19], the target named is Receptor tyrosine-protein kinase erbB-4 (Homo sapiens, UniProt Q15303).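 Note: ERBB4 member of a kinome-wide kinase profiling panel.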
In assay [20] the target is Phosphorylase b kinase gamma catalytic chain, liver/testis isoform (Homo sapiens, UniProt P15735).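 Note: PHKG2 measured as one member of a kinome-wide kinase panel.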
Assay [21] addresses Calcium/calmodulin-dependent protein kinase type II subunit gamma (Homo sapiens, UniProt Q13555).
Assay [22] has as its target Serine/threonine-protein kinase TAO1 (Homo sapiens, UniProt Q7L7X3).

The source made the active and inactive calls. Bounds are passed on as bounds.

Sequence of Receptor tyrosine-protein kinase erbB-4 (Q15303 whole entry, canonical isoform): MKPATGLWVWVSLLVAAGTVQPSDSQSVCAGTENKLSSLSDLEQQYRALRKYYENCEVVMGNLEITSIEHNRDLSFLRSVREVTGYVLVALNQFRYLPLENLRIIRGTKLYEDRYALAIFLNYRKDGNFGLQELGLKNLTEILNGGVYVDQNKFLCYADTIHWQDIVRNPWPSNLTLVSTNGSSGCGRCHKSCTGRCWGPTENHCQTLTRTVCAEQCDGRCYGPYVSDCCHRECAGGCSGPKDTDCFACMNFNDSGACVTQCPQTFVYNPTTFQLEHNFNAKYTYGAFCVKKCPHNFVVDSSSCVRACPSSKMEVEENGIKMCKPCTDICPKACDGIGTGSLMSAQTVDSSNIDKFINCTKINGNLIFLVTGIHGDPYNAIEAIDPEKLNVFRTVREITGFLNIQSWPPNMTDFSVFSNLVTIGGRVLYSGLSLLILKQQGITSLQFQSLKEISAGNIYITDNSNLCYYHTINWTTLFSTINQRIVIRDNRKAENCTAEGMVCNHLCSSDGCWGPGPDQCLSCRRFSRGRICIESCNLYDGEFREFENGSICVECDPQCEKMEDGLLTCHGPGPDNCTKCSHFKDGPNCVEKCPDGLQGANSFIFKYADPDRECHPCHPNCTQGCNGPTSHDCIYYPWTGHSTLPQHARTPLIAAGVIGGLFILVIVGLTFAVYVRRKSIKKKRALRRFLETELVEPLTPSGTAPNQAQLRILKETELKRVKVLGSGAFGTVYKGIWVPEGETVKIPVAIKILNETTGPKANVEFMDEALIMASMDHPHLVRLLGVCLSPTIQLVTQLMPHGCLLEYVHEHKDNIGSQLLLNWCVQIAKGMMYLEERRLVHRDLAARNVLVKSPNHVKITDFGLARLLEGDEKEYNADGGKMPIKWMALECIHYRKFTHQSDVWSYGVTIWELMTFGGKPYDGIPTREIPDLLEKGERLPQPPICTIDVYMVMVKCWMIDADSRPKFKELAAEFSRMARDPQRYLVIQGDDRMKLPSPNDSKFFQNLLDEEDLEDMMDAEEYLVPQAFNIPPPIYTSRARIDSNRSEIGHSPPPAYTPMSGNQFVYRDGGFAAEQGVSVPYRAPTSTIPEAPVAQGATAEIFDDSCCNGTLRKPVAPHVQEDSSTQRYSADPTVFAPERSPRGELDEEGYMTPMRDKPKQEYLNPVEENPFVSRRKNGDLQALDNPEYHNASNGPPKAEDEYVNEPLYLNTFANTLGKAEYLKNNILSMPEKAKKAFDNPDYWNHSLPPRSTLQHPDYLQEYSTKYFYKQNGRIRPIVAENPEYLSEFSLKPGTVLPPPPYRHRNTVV
Sequence of Cyclin-dependent kinase 5 (Q00535 whole entry): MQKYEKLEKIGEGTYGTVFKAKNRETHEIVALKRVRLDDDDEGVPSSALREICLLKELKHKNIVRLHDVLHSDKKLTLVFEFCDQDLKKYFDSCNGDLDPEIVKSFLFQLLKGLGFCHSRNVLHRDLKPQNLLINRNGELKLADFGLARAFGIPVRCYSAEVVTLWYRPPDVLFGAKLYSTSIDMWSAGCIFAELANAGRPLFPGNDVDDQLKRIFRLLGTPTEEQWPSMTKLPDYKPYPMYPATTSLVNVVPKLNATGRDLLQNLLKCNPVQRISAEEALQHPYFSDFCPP
Sequence of Tyrosine-protein kinase JAK2 (O60674 whole entry): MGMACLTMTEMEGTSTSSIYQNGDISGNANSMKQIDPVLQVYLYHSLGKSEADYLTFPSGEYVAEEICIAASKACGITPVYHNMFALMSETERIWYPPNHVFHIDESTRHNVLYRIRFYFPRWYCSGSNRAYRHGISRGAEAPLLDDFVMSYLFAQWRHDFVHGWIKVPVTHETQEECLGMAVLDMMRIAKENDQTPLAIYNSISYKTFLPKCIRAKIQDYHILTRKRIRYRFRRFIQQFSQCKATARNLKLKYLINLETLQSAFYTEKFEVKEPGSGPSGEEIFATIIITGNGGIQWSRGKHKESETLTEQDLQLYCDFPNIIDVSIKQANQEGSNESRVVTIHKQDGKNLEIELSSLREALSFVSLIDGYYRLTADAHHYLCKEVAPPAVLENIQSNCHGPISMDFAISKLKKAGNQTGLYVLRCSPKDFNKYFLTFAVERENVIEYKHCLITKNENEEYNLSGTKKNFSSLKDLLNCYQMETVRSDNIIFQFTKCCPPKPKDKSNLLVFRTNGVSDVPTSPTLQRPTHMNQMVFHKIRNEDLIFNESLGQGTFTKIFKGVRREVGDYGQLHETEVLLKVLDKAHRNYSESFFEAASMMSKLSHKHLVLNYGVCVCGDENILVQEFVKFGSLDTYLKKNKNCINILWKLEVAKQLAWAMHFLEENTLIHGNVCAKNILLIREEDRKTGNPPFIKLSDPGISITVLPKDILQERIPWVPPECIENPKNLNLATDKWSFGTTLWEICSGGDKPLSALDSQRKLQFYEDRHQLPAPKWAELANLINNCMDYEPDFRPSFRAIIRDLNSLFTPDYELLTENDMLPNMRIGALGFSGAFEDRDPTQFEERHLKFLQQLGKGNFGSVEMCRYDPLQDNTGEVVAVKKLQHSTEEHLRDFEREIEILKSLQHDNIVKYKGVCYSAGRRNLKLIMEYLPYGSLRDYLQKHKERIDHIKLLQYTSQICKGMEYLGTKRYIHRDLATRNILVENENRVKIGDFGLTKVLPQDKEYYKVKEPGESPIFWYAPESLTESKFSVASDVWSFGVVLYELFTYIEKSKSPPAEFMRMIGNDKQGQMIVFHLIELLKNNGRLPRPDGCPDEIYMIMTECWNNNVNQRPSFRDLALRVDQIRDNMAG
Sequence of Serine/threonine-protein kinase Nek2 (P51955 whole entry): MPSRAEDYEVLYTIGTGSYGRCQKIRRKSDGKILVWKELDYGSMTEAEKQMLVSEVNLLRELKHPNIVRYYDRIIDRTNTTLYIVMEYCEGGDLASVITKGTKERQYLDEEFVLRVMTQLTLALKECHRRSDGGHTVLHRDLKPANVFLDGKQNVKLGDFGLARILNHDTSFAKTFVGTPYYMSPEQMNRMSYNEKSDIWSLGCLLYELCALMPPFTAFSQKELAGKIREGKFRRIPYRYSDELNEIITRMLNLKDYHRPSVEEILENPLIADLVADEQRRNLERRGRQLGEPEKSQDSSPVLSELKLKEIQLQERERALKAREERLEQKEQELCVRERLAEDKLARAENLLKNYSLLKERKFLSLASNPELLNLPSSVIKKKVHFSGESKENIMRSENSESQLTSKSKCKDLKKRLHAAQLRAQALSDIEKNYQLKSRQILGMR
Sequence of Vascular endothelial growth factor receptor 3 (P35916 whole entry): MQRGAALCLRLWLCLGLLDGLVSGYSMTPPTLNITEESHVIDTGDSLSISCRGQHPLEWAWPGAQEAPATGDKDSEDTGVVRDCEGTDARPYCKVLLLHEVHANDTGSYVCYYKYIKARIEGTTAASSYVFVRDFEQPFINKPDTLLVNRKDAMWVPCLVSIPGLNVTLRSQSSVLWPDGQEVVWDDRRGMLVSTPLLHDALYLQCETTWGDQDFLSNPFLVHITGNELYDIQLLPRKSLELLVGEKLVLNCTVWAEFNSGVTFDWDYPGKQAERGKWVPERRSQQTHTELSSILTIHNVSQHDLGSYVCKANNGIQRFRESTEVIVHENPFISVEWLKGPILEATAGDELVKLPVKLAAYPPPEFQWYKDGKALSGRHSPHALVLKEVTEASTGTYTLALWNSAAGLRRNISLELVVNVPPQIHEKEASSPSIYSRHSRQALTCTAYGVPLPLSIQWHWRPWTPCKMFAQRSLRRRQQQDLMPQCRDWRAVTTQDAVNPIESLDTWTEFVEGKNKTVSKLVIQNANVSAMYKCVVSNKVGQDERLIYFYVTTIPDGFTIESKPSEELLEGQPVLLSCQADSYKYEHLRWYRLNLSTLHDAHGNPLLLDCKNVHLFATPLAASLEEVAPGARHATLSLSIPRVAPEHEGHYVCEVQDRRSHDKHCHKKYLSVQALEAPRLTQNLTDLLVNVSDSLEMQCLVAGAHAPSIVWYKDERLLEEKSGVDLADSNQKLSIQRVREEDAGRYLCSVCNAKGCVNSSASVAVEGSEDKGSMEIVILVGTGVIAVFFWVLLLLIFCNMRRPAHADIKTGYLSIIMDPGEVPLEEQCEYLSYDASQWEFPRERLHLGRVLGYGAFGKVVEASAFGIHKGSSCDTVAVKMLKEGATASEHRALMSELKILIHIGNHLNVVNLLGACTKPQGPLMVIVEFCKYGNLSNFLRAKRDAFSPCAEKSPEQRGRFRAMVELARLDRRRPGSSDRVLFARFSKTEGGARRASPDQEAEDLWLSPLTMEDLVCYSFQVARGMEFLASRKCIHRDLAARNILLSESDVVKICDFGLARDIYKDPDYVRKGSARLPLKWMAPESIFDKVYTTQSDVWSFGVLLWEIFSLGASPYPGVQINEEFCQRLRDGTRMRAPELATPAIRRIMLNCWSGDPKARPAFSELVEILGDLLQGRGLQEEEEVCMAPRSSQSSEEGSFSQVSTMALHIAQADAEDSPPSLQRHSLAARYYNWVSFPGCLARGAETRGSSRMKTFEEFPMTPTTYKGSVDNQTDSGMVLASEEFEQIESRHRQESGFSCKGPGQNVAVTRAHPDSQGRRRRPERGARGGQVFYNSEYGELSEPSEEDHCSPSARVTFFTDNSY
Sequence of Serine/threonine-protein kinase Chk1 (O14757 whole entry, canonical isoform): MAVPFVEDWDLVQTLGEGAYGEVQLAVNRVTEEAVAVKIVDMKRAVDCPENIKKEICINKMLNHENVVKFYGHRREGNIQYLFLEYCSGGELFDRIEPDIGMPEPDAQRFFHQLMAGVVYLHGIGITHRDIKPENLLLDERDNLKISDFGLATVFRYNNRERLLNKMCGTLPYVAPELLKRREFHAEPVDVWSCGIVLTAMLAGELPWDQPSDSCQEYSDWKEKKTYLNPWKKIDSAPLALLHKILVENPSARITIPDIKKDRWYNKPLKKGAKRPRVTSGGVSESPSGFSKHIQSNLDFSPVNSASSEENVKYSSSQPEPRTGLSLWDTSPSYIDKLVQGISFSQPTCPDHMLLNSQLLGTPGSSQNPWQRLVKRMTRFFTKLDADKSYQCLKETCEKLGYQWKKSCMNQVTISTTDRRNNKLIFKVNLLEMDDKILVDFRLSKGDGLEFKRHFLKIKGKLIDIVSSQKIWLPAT

`Cc1c(C=O)c(O)n2c(nc3ccccc32)c1C#N`: the Ki in assay [1] is > 1580 nM (inactive); in assay [2], > 7940 nM (inactive); in assay [3], > 7940 nM (inactive); in assay [4], 63.1 nM (active); in assay [5], 100 nM (active); in assay [6], 1580 nM (active). Besides, the Ki in assay [7] was > 3980 nM (inactive); in assay [8], > 3160 nM (inactive); in assay [9], > 1580 nM (inactive); in [10], > 7940 nM (inactive); in assay [11], 2000 nM (active); in assay [12], > 631 nM (inactive). Also, the Ki in assay [13] was > 10000 nM (inactive); on Ephrin type-A receptor 2 it was > 3160 nM (inactive); in assay [14], > 1000 nM (inactive); in [15] it was 3980 nM (active); in assay [16] it was 794 nM (active); in assay [17] it was > 10000 nM (inactive). The Ki in assay [18] is > 2000 nM (inactive); in assay [19] it was > 3980 nM (inactive).
Regarding `Cc1n[nH]c2cnc(-c3cncc(OCC(N)Cc4cccc(C(F)(F)F)c4)c3)cc12` (stereo not drawn), the Ki was > 1580 nM (inactive) in assay [1]; 2510 nM (active) in assay [20]; 10 nM (active) in assay [21]; 10 nM (active) in [2]; 1580 nM (active) in assay [3]; 794 nM (active) in assay [4]. Also, the Ki in assay [5] was 1260 nM (active); in assay [6], > 1580 nM (inactive); in assay [7], > 3980 nM (inactive); in [22] it was 31.6 nM (active); in assay [8] it was > 3160 nM (inactive); in assay [9], > 1580 nM (inactive). In addition, the Ki in [10] is 3980 nM (active); in assay [11] it was 316 nM (active); in assay [12] it was > 631 nM (inactive); in [13] it was 63.1 nM (active); at Ephrin type-A receptor 2, > 3160 nM (inactive); in [14], > 2000 nM (inactive). Also, the inhibition constant (Ki) was 398 nM (active) in [15]; 3160 nM (active) in assay [16]; > 10000 nM (inactive) in assay [17]; > 2000 nM (inactive) in assay [18]; > 3980 nM (inactive) in assay [19].
